Test results reported in patent US6391873B1, “Imidazodiazepine derivative” (priority 1999, dated 2002).

Assays:
[1] = test system: cytochrome P450 isoenzymes; assay: inhibition of cytochrome P450 isoenzymes
mice [2] = assay: rotating rod test (rotarod test), motor impairment; format: in vivo, mouse; settings: for ED50 for a rotarod deficit: consistently at different time points up to 1 hour after intravenous injection
Description: The motor impairing properties of the compound of the invention can be determined, for example, in the rotating rod test (rotarod test). […] These mice were housed in Macrolon® type I cages for one or more days following arrival in the laboratory colony (12:12 hour light-dark cycle). They have free access to a standard rodent diet (Kliba Mühlen, Kaiseraugst, Switzerland) and tap water in the home cage up to testing. They are brought into the test laboratory at least 30 min before the test which was done during the light portion of the day-night cycle. In the rotating rod test the animals are placed on a horizontally arranged, smooth metal rod having a diameter of 3 cm, which is rotated at 2 revolutions per min. Initially, the animals are given the opportunity of familiarizing themselves with the test situation for at least 30 sec. Subsequently, those animals which succeed in remaining on the rod for at least 1 min are selected for use in the test. These selected animals are then given the test preparations intravenously in different dosages. At various points in time post-injection, it is then determined whether the animals are able to remain wallking on the rod for a minimum period (minimum period of 10 sec at time points 15 sec. 30 sec. 1 min and 2 min; minimum period of 1 min at time points 5 min, 15 min, 30 min, 60 min). The dosage at which 50% of the animals are capable of remaining on the rod (i.e., ED50) was determined at each of these time points.

mice [3] = assay: mouse operant conflict model of anxiety; settings: oral bolus circa 30 min prior to conflict test; punished responding
animals = assay: anticonvulsant effects in animals; format: in vivo; settings: low doses
mice [4] = assay: fatalities after i.v. administration in mice (rotarod test); format: in vivo, mouse; settings: up to 100 mg/kg i.v.
benzodiazepine receptors = assay: 3H-flumazenil in vitro binding assay using homogenized rat cortex; settings: inhibition of binding of tritiated flumazenil
Description: The preclinical pharmacological profile of the compound of the present invention for treatment of anxiety disorders, and/or treatment of convulsions and/or non-sedative treatment of sleep disorders involves no, or only minimal motor impairment, in a standard test of motor performance in animals (e.g. rotarod test in mice with motor function evaluated in the same animals at different time points up to 1 hour after intravenous injection).
The affinity of the compound of the invention to the central benzodiazepine receptors was established in vitro according to the methods described in Nature 294, 763-765 (1981) and J. Neurochemistry 37, 714-722 (1981). According to these methods, the inhibition of the binding of tritiated flumazenil to the specific benzodiazepine receptors in the cortex of rats by the respective test substance is determined. The affinity was calculated as pKi (for background information on pKi see: Cheng, Y. and W. H. Prusoff, Relationship between the inhibition constant (Ki) and the concentration of inhibitor which causes 50 percent inhibition (IC50) of an enzymatic reaction. Biochem. Pharmac. 22: 3099-3108, 1973) as the measure of the specific binding of tritiated flumazenil to specific benzodiazepine receptors in the cortex of rat.

rats [5] = assay: cognitive impairment in rats
mice [6] = assay: tolerance of the anxiolytic effect in mice after chronic treatment
rats [7] = assay: fatalities after i.v. administration in rats; format: in vivo; settings: 100 mg/kg i.v.
mice [8] = assay: withdrawal signs in chronically treated mice challenged with a benzodiazepine receptor antagonist; settings: chronically treated mice challenged with benzodiazepine receptor antagonist (e.g., sarmazenil)
mice [9] = assay: ethanol interaction in mice

With `CN(C)Cc1nc(-c2ncn3c2CN(C)C(=O)c2c(Cl)cccc2-3)no1` [compound of the invention, 7-Chloro-3-(5-dimethylaminomethyl-[1,2,4]oxadiazol-3-yl)-5-methyl-4,5-dihydro-imidazo[1,5-a][1,4]benzodiazepin-6-one] as the compound, how does the “inhibition of cytochrome P450 isoenzymes” value [1] read?
The value was “minimal or no inhibition”.

And the “Rotating rod test ED50” value (mice [2]; 15 sec after administration)?
Its value is >10 mg/kg i.v.

What about the “Rotating rod test ED50” value (mice [2]; 20 sec after administration) of the same compound?
The value was >10 mg/kg i.v.

And the “Rotating rod test ED50” value (mice [2]; 60 sec after administration)?
Its value is >10 mg/kg i.v.

What about the “Rotating rod test ED50” value (mice [2]; 2 min after administration) of the same compound?
The value was >10 mg/kg i.v.

And the “Rotating rod test ED50” value (mice [2]; 5 min after administration)?
Its value is >10 mg/kg i.v.

And the “Rotating rod test ED50” value (mice [2]; 15 min after administration)?
The value was >10 mg/kg i.v.

What about the “Rotating rod test ED50” value (mice [2]; 30 min after administration) of the same compound?
The value was >10 mg/kg i.v.

And the “Rotating rod test ED50” value (mice [2]; 60 min after administration)?
The value was >10 mg/kg i.v.

What about the “ED50 for a rotarod deficit” value (mice [2]) of the same compound?
Its value is > 10 mg/kg i.v.

And the “ED50 for a rotarod deficit” value (mice [2]; listed as compound of the present invention)?
Its value is “greater than 10 mg/kg i.v”.

And the “minimum effective dose (statistically significant anxiolytic-like effect)” value (mice [3])?
Its value is 3 mg/kg p.o.

What about the anticonvulsant effects (animals) of the same compound?
The anticonvulsant effects was “show anticonvulsant effects”.

And the fatalities (mice [4])?
The fatalities was “without fatalities occurring”.

What about the “Affinity to benzodiazepine receptors” value (benzodiazepine receptors) of the same compound?
Its value is 9.1.

What about the cognitive impairment (rats [5]) of the same compound?
The cognitive impairment was “minimal cognitive impairment”.

And the “reduction (so-called tolerance) of the anxiolytic effect” value (mice [6])?
The value was “minimal reduction”.

What about the fatalities (rats [7]) of the same compound?
The fatalities was “without fatalities occurring”.

What about the withdrawal signs (mice [8]) of the same compound?
The withdrawal signs was “minimal withdrawal signs”.

And the ethanol interaction (mice [9])?
The ethanol interaction was “low ethanol interaction”.
